Data reported in patent US7388124B2 (priority 2001, dated 2008).
“And” between values parts separate entries of the source, which are not always exact repeats. Identical values can stand only once. “Also recorded” adds a separate entry of the source. Like-named read-outs stand apart in the source and are kept apart here.

What was measured:
Assay type in all cases: in vivo, Sprague Dawley rats
[1] = test system: rat pain model variants; conditions: for von Frey F 4.93 # ST[…]-ANALGESIC: of 6
Experimental: Male Sprague Dawley rats initially weighing between 150 and 175 grams were housed singly. […] The pain behaviors studied were static mechanical allodynia (e.g., light touch stimulation with von Frey fibers 4.56, 4.73, 4.93, and/or 5.07), dynamic mechanical allodynia (e.g., stimulation with moving camel hair brush), and/or mechanical hyperalgesia (e.g., pinprick stimulation).
(§1) After the baseline control data was collected, the specified procedure with a gel was performed near the chosen nerve of each variant group (see Tables 2-6 and 8-10), then the rats were tested post procedurally and intermittently for up to 77 days for behavioral changes (see Tables 2-6 and 8-11) and for their responses to substances with analgesic properties (see Tables 7 and 12).
The stimuli used to elicit pain behavior were the von Frey fibers, camel hair brush and pinprick, with 6 stimulations of each stimulus.
(§2) The tunnels identified by the above studies were then used for the placement of the biocompatible gels by the chosen peripheral nerves. The gelatinous or viscous substances (i.e., the gels) placed by the peripheral nerves or nerve roots contained collagen (e.g., AVITENE® and gelatin) or hydrogels. The “collagen gel” used in the present study was composed of 0.8 grams of collagen as AVITENE® (microfibrillar collagen hemostat flour, Davol Inc., Cranston, R.I. 02920) and 0.7 grams of collagen as gelatin (Knox gelatin, Kraft Foods, Northfield, Ill. 60093) mixed with 14 cc of normal saline until homogenous. Then the collagen mixture was placed in a PYREX® bowl resting in a paper bowl and covered with a ceramic saucer, then heated for 20 seconds at full power in a microwave. The resulting viscous mixture was kept fluid in a warm water bath at 100-110° F., until used for the placement procedure. The wound hydrogels used in the present study were two types: one contains alginate (SAF-Gel® from ConvaTec of E. R. Squibb & Sons, Princeton, N.J.) and the other contains acemannan from Aloe vera L. (Carrasyn®V from Carrington Laboratories, Irving, Tex.). […] Such hydrogels are used in the care of open dermal wounds as well as in first and second degree burns since they provide a closed moist environment for wound healing.
(§3) The rats were anesthesized with 1.5% to 2% isoflurane for the percutaneous kinesthetic placement of the above “gels” by the specified nerves. Using an angled 23 gauge thin wall 1″ needle, approximately 0.1 cc-0.2 cc of gel was placed percutaneously with kinesthetic technique in the anatomically defined fascial tunnels of the chosen peripheral nerves as described below.
(§4) The doses were given intraperitoneally (I.P.) and behavioral stimulus testing began 40-80 minutes after the dose. The student's t-test (p<0.05) was performed for determining the significance of changes in behaviors associated with pain after the analgesic was administered.

[2] = test system: rat pain model variants; assay: Analgesic effect in rat neurogenic pain model variants (overall statement)
Experimental: (§5) The methods of preparation and testing were similar for all the variant pain models described in this example. Male Sprague Dawley rats initially weighing between 150 and 175 grams were housed singly. Baseline behaviors to stimulations of the paw on which the procedure was to be performed were recorded over several sessions after accommodation of 3-4 days, and the results were averaged and used as the baseline control data. The pain behaviors studied were static mechanical allodynia (e.g., light touch stimulation with von Frey fibers 4.56, 4.73, 4.93, and/or 5.07), dynamic mechanical allodynia (e.g., stimulation with moving camel hair brush), and/or mechanical hyperalgesia (e.g., pinprick stimulation).
as §1
(§6) The stimuli used to elicit pain behavior were the von Frey fibers, camel hair brush and pinprick, with 6 stimulations of each stimulus. Each variant pain model had the same sequence of stimuli with the positive responses averaged and a student T-test performed for the significance of the post procedural responses as compared to the baseline control data (see Tables 2-6 and 11); and for the post-analgesic responses as compared to the pre-analgesic behavioral data (see Tables 7 and 12).
as §2, §3, §4

[3] = test system: rat pain model variants; assay: Dynamic mechanical allodynia (camel hair brush) in rat pain model variants; conditions: Ethosuximide 200 mg/kg (IP); n=12 rats; Pre Avg 4.17; p=1.1E-4
Experimental: as §5, §1, §6
The tunnels identified by the above studies were then used for the placement of the biocompatible gels by the chosen peripheral nerves. The gelatinous or viscous substances (i.e., the gels) placed by the peripheral nerves or nerve roots contained collagen (e.g., AVITENE® and gelatin) or hydrogels. […]

[4] = test system: rat pain model variants; assay: Mechanical hyperalgesia (pinprick) in rat pain model variants; conditions: for Pinprick # STIMULATIONS POST-ANALGESIC: of 6; for Pinprick # STIMULATIONS POST-ANALGESIC, Total: total of 5 rats, pre total 30
Experimental: as §5, §1, §6, §2, §3, §4

[5] = Ethosuximide 100 mg/kg IP, 1 rat tibial n. with Acemann hydrogel, pre 6
[6] = Ethosuximide 100 mg/kg IP, 1 rat tibial n. with Alginate hydrogel, pre 6

CCC1(C)CC(=O)NC1=O (stereo not shown) [Ethosuximide, ethosuximide]
von Frey F 4.93 # ST[…]-ANALGESIC ([1]; Ethosuximide 100 mg/kg IP, 1 rat saphenous n. with Avitene collagen, pre 4): 0 | von Frey F 4.93 # ST[…]-ANALGESIC [1, 5]: 0 | von Frey F 4.93 # ST[…]-ANALGESIC [1, 6]: 0 | von Frey F 4.93 # ST[…]-ANALGESIC ([1]; Ethosuximide 100 mg/kg IP, single rats sciatic n. with Alginate hydrogel (two rats, pre 3 and 6)): 0 | von Frey F 4.93 # ST[…]-ANALGESIC, Total ([1]; Ethosuximide 100 mg/kg IP, total of 5 rats, pre total 25, pre vs post p=1.43E-3): 0 | Post Avg, Average Positive stimulations out of 6 total, Stim A vF 4.56 ([1]; Ethosuximide 200 mg/kg (IP), all rats of Tables 8-10, n=12, Pre Avg 1.83, p=2.9E-3): 0.5 | Post Avg, Average Positive stimulations out of 6 total, Stim B vF 4.93 ([1]; Ethosuximide 200 mg/kg (IP), n=12 rats, Pre Avg 2.92, p=8.4E-5): 0.58 | Post Avg, Average Positive stimulations out of 6 total, Stim C vF 5.07 ([1]; Ethosuximide 200 mg/kg (IP), n=12 rats, Pre Avg 3.92, p=1.4E-5): 0.83 | analgesic effect (significance) ([2]; ethosuximide 200 mg/kg IP, Table 12, within 40-80 minutes): significant analgesic effects | Post Avg, Average Positive stimulations out of 6 total, Stim S Brush [3]: 1.17 | Pinprick # STIMULATIONS POST-ANALGESIC ([4]; Ethosuximide 100 mg/kg IP, 1 rat saphenous n. with Avitene collagen, pre 6): 1 | Pinprick # STIMULATIONS POST-ANALGESIC [4, 5]: 0 | Pinprick # STIMULATIONS POST-ANALGESIC [4, 6]: 2 | Pinprick # STIMULATIONS POST-ANALGESIC ([4]; Ethosuximide 100 mg/kg IP, single rats sciatic n. with Alginate hydrogel (two rats, pre 6 and 6)): 0 and 1 | Pinprick # STIMULATIONS POST-ANALGESIC, Total ([4]; Ethosuximide 100 mg/kg IP, pre vs post p=1.6E-4): 4 | Post Avg, Average Positive stimulations out of 6 total, Stim PP Pin Prick ([4]; Ethosuximide 200 mg/kg (IP), n=12 rats, Pre Avg 5.25, p=1.4E-8): 1.75

O=C(c1ccccc1)c1ccc2n1CCC2C(=O)O (stereo not shown) [Ketorolac, ketorolac]
analgesic effect (significance) ([2]; ketorolac 10% 0.1 cc IP, Table 7): no significant analgesic effect; also recorded: no significant analgesic properties | Pinprick # STIMULATIONS POST-ANALGESIC ([4]; Ketorolac 10% 0.1 cc IP, 1 rat peroneal n. with Avitene collagen, pre 6): 6 | Pinprick # STIMULATIONS POST-ANALGESIC ([4]; Ketorolac 10% 0.1 cc IP, 1 rat tibial n. with Acemannan hydrogel, pre 6): 6 | Pinprick # STIMULATIONS POST-ANALGESIC ([4]; Ketorolac 10% 0.1 cc IP, 1 rat tibial n. with Alginate hydrogel, pre 6): 6 | Pinprick # STIMULATIONS POST-ANALGESIC ([4]; Ketorolac 10% 0.1 cc IP, single rats sciatic n. with Alginate hydrogel (two rats, pre 6 and 6)): 5 and 6 | Pinprick # STIMULATIONS POST-ANALGESIC, Total ([4]; Ketorolac 10% 0.1 cc IP, pre vs post p=3.7E-1): 29
